Blank lines part the entries; values can stand above or below the compound they belong to. Active and inactive are the calls of the source. Unless noted, the calls are words filed in the database; no cut-off is given here.
Columns and labels:
[1] = molecular target: T1, High affinity choline transporter 1 (Homo sapiens, UniProt Q9GZV3); assay: inhibition of SLC5A7-mediated choline transport – cell-based, HEK-293 hCHT, [3H]-choline uptake, dose response (AID 652177); format: functional
T1 sequence (Q9GZV3 whole entry): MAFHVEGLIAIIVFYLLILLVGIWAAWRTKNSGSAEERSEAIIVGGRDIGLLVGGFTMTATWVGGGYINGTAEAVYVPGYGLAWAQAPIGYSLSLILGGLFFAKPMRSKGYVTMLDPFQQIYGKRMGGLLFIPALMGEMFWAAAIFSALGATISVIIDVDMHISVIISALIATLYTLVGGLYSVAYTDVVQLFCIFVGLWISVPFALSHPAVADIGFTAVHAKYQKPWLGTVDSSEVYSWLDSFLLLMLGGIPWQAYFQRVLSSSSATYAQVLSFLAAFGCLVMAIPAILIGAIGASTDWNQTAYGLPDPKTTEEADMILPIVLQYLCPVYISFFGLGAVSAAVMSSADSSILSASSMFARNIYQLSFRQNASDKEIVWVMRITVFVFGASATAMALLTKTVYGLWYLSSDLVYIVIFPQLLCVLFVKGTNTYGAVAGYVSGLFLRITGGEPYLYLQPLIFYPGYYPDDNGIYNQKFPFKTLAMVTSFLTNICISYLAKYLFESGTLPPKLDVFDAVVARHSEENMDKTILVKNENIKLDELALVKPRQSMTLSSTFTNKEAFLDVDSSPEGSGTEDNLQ

[2] = molecular target: Metabotropic glutamate receptor 5 (Rattus norvegicus, UniProt P31424); assay: Identification of a glycine sulfonamide based non-MPEP site positive allosteric potentiator (PAM) of mGlu5 (calcium_assay).; format: functional
Metabotropic glutamate receptor 5, sequence (P31424 whole entry): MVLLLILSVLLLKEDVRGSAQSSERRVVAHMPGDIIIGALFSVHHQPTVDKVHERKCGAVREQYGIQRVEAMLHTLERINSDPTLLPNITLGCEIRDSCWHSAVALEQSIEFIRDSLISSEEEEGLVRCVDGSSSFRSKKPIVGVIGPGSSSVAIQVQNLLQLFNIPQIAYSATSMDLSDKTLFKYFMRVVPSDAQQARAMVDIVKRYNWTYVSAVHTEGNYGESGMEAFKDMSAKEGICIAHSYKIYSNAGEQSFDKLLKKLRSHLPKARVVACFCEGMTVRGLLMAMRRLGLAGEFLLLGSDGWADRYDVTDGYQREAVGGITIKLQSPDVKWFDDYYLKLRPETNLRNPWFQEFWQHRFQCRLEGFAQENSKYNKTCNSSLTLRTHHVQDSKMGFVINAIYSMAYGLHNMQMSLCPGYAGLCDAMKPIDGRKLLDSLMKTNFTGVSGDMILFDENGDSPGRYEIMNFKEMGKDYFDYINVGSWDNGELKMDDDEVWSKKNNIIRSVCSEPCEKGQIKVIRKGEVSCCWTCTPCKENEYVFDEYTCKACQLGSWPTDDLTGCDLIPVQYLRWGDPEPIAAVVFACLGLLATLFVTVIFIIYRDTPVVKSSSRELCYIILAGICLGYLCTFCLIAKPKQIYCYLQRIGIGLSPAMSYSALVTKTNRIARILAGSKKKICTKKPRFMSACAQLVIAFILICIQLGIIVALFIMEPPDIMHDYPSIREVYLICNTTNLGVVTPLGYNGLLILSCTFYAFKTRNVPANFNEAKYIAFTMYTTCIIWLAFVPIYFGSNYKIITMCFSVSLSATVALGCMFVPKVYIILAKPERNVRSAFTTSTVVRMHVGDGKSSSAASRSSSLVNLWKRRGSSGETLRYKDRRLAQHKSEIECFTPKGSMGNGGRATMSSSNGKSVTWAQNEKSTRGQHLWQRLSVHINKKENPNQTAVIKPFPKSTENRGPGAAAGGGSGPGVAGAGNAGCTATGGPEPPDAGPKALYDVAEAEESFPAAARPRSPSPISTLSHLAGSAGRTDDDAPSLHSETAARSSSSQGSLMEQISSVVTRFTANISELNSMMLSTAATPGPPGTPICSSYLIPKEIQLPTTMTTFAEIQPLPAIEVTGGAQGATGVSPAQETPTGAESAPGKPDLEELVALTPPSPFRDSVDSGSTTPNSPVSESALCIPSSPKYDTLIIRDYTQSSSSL

[3] = disruptors of Keap1/Nrf2 protein interaction – biochemical, fluorescence polarization, dry powder, set 3, dose response (AID 651806)
[4] = kidney cell line viability loss – HEK293T, luminescence plate reader, powder samples, set 4, cytotoxicity control, dose response (AID 651863); format: functional, cell-based; settings: HEK293
[5] = HeLa cell viability loss – plate reader, dry powder, cytotoxicity control, dose response (AID 651946); format: functional, cell-based
[6] = inhibition of mouse IRAP aminopeptidase activity – biochemical, Leu-AMC fluorescence, cherry-picked samples, set 2, selectivity assay for ERAP1 modulator project, dose response (AID 743340)
[7] = molecular target: Potassium channel subfamily K member 9 (Homo sapiens, UniProt Q9NPC2); assay: KCNK9 flux blockade, concentration-response – cell-based, FluxOR thallium flux, selectivity assay for TASK1 inhibitor project, SAR follow-up (AID 652211); format: functional;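 further: potency is for inhibitors of the channel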
Potassium channel subfamily K member 9, sequence (Q9NPC2 whole entry): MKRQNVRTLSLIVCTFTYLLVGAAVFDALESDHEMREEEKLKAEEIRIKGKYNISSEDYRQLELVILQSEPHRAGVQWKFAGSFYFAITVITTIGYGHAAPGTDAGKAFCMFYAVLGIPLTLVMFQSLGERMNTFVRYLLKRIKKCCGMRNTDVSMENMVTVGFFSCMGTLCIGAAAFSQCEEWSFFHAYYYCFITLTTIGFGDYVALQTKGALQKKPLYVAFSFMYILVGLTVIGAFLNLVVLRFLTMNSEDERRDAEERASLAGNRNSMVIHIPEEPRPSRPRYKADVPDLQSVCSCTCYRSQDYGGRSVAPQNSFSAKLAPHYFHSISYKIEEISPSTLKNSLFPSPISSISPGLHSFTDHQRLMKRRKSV

[8] = molecular target: Potassium channel subfamily K member 3 (Homo sapiens, UniProt O14649); assay: inhibition of human KCNK3 channel flux – CHO cells, FluxOR thallium flux, SAR follow-up (AID 652212); format: functional
Potassium channel subfamily K member 3, sequence (O14649 whole entry): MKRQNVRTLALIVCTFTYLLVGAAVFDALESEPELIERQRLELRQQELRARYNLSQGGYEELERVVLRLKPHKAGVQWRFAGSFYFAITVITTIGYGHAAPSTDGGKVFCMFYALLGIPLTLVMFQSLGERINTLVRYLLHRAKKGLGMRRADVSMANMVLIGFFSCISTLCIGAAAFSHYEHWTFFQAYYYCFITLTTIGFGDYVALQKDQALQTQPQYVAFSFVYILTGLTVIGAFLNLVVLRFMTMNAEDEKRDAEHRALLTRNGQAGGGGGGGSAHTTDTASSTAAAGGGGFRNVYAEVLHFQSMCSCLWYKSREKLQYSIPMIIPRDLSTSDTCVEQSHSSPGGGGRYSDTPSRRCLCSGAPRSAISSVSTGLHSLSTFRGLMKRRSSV

[9] = molecular target: SWI/SNF-related matrix-associated actin-dependent regulator of chromatin subfamily A member 2 (Homo sapiens, UniProt P51531); assay: Luminescence-based cell-based high throughput dose response assay to identify activators of the function of SWI/SNF related, matrix associated, actin dependent regulator of chromatin, subfamily a, member 2 (SMARCA2, BRM).; format: functional
SWI/SNF-related matrix-associated actin-dependent regulator of chromatin subfamily A member 2, sequence (P51531 whole entry): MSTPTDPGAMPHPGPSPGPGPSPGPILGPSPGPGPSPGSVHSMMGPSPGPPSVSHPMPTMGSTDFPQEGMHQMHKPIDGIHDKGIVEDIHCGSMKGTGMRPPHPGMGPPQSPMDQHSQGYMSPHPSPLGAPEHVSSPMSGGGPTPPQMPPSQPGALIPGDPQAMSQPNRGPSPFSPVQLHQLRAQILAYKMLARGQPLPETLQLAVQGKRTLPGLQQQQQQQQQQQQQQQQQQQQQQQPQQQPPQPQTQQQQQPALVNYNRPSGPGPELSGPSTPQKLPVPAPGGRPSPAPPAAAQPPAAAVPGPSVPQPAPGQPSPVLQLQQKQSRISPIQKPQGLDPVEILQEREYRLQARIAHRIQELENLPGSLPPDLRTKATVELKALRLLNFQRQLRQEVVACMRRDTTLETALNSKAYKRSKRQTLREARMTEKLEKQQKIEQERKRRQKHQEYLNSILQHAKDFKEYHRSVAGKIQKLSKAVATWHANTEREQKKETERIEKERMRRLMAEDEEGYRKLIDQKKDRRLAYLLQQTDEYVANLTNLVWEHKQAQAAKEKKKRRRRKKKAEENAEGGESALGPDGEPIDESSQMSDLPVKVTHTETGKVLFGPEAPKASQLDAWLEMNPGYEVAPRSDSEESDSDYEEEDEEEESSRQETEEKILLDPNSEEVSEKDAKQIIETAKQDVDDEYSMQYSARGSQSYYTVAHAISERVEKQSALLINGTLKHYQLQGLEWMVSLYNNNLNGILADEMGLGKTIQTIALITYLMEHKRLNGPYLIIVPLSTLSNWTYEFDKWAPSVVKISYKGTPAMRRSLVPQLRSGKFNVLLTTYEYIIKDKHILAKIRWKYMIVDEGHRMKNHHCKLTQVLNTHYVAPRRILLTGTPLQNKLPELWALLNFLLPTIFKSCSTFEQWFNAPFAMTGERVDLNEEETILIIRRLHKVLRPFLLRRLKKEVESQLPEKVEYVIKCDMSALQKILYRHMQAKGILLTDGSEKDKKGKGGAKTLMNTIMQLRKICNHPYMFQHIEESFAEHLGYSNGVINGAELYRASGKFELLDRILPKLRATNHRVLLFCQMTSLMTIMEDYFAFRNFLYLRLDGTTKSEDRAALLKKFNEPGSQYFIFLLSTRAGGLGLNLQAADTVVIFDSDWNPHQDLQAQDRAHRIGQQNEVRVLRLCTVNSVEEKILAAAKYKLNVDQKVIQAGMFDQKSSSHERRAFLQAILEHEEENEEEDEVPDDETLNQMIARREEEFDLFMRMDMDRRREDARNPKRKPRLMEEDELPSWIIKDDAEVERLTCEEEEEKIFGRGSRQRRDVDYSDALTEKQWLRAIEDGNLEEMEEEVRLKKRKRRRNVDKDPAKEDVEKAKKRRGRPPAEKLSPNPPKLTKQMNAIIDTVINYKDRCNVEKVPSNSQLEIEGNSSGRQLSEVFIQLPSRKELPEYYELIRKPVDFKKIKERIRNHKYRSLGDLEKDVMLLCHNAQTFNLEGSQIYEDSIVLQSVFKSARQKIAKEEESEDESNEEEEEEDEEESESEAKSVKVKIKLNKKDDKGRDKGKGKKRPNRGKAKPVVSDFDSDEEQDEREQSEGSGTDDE

[10] = Counterscreen for activators of the function of SWI/SNF related, matrix associated, actin dependent regulator of chromatin, subfamily a, member 2 (SMARCA2, BRM): Luminescence-based cell-based high throughput dose response assay to identify non-selective compounds using the VP16 reporter assay.; format: functional
[11] = molecular target: T2, DNA repair protein RAD52 homolog (Homo sapiens, UniProt P43351); format: functional, biochemical
T2 sequence (P43351 whole entry): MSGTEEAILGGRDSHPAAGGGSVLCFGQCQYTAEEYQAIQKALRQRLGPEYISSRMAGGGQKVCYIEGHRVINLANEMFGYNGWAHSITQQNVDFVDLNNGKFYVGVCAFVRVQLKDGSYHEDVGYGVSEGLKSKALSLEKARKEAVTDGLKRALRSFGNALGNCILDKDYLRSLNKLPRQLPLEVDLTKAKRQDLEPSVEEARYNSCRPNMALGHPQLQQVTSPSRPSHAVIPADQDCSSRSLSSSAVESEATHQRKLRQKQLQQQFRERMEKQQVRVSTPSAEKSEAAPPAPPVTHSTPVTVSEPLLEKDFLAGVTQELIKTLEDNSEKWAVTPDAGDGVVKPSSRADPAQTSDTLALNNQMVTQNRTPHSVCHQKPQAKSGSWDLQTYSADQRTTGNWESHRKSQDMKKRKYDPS

[12] = molecular target: T3, Short transient receptor potential channel 4 (Mus musculus, UniProt Q9QUQ5); assay: block of DAMGO-driven TRPC4 calcium entry – cell-based, HEK293 TRPC4/mu-opioid, Fluo-4 calcium, dose response (AID 434942); format: functional;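 further: potency of inhibitors blocking the TRPC4 calcium response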
T3 sequence (Q9QUQ5 whole entry): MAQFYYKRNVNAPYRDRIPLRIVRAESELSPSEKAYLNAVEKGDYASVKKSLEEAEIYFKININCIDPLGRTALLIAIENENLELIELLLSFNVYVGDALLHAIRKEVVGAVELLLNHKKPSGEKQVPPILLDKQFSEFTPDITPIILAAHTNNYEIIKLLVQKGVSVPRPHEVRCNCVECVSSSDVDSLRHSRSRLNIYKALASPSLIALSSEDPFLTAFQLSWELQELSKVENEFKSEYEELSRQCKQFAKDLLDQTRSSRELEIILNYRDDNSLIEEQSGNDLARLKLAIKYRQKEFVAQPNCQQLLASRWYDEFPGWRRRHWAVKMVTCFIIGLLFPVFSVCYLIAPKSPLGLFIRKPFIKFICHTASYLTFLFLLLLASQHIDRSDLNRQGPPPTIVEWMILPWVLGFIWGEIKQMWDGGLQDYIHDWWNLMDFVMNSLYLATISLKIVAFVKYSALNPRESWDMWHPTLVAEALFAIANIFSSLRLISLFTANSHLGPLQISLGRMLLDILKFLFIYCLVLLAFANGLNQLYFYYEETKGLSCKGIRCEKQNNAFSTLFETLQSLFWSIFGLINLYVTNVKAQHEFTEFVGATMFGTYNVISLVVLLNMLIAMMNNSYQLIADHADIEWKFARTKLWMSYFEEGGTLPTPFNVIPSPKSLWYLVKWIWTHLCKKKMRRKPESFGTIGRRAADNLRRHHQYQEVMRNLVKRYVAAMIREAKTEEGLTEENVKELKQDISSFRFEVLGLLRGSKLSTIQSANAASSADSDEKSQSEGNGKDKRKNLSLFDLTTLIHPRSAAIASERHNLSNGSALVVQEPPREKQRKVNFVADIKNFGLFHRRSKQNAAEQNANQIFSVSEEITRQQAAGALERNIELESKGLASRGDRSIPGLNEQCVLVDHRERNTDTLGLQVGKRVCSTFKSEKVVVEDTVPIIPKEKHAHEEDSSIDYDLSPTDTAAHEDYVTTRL

IC50 [1]: 1.75 µM (active)
Compound: CCn1nc(C)c(CNC(=O)c2ccc(OC)c(OC3CCN(C(C)C)CC3)c2)c1C

EC50 [2]: 10 µM (inconclusive)
Compound: CS(=O)(=O)N(CC(=O)N1CCc2ccccc21)c1ccccc1Cl

Compound: O=C(O)C1CCCCC1C(=O)N1CCc2ccccc2C1CN1Cc2ccccc2C1=O (configuration not stated)
AC50 [3]: 91.2 µM (active) | AC50 [4]: 39.1 µM (active)

Compound: FC(F)(F)Oc1ccccc1-c1nnc(SCc2ccccc2)o1
AC50 [5]: > 52 µM (inactive)

Compound: Cc1noc(C)c1S(=O)(=O)Nc1ccc2c(c1)C(=O)N([C@H](C)CO)C[C@H](C)[C@H](CN(C)Cc1ccc3c(c1)OCO3)OCCCC[C@@H](C)O2
AC50 [6]: 15.7 µM (active)

IC50 [7]: 0.29 µM (active) | IC50 [8]: 0.017 µM (active)
Compound: CCOc1ccccc1NC(=O)c1cccc(NC(=O)c2cccc(C)c2)c1

Compound: COc1nc(NC(=N)N)nc2ccc(C)cc12
EC50 [9]: > 3.38 µM (active) | EC50 [10]: > 91.2 µM (inactive) | AC50 [11]: 9.39 µM (active) | EC50 [12]: 5.31 µM (active)
